We go through six compounds from patent US4668703A, “γ-allenyl-γ-aminobutyric acids” (Syntex (U.S.A.) Inc., priority 1985, dated 1987).

The subject of one series is C. elegans. Description: C. elegans assay. Particulars: Caenorhabditis elegans, read-out: % Active. The method, then:
The compounds tested were dissolved in DMSO at 10 mg/ml to give sample stock solutions. During assay, 1 ml M9 buffer (6 g Na2 HPO4, 3 g KH2 PO4, 5 g NaCl, and 0.25 g MgSO4 H2 O per liter) was placed in each of the 24-wells in a tissue culture plate. 10 μl of sample stock solution was added respectively to each of 23 wells. The remaining well served as drug-free control.
At time 0, 1 drop of C. elegans suspension was dropped into each well (25-50 adults). At 1 hour, the number of active worms versus total in each well was recorded.

Another series concerns N. Brasiliensis. Put plainly: N. Brasiliensis assay, third larval stage. Particulars: 50 μg/ml, 37° C., control 100%, read-out: Percent Viable. The method, then: The compound was tested at 50 μg/ml against the third larval stage of N. Brasiliensis at approximately 50 L3 /well; this mixture was incubated at 37° C. for total of 7 days. Activity of the compound was checked on days 1, 4. and 7 post-inoculation.

Series [1] has as its system γ-aminobutyric acid transaminase. Particulars: cited from earlier work.
Series [2] concerns brain level of γ-aminobutyric acid. Particulars: in animals; cited from earlier work.
The subject of the next series is mouse. Put plainly: Toxicity test (acute, oral, mouse). Type of series: in vivo. Particulars: male mice, once daily, 62.5, 125, 250 and 500 mg/Kg, observed for 21 days. The method, then: (§1) 4-amino-5,6-heptadienoic acid prepared in CMC vehicle was administered once daily to groups of 6 male mice at doses of 0, 62.5, 125, 250 and 500 mg/Kg. […] Therefore, the LD50 (acute, oral, mouse) for 4-amino-5,6-heptadienoic acid is greater than 500 mg/Kg.

Series [3] in a line: Toxicity test (acute, oral, mouse). Particulars: mouse, in vivo, po; male mice, CMC vehicle, observed for 21 days. Type of series: in vivo. The method, then:
as §1

Structures can show the parent of a compound that is named as a salt. Where two headings read alike, the source gives them in different places.

On to `C=C=CC(N)CCC(=O)OCCCCCCCC` (stereo not shown) [Octyl 4-amino-5,6-heptadienoate para-toluene sulfonic acid salt], for which the activity at 100 µg/mL in the series with C. elegans (active worms versus total at 1 hour, 10 μl of 10 mg/ml DMSO stock added to 1 ml M9 buffer, control 100%) came to 45%. Besides, the viability at 50 µg/mL in the series with N. Brasiliensis (24 h, day 1) came to 64%; with N. Brasiliensis (96 h, day 4), 0%; with N. Brasiliensis (168 h, day 7), 0%.
Consider `NC(CF)CCC(=O)O` (stereo not shown) [γ-monofluoromethyl-γ-aminobutyric acid], for which the “irreversible inhibitors of γ-aminobutyric acid transaminase” value (shortened to “irreversible inhibitors”) in series [1] was “potent irreversible inhibitors”. In addition, the “increase of the brain level of γ-aminobutyric acid” value (“increase” for short) in series [2] is listed as “significantly increase”.
`C=CC(N)CCC(=O)O` (stereo not shown) [γ-vinyl-γ-aminobutyric acid]: the “irreversible inhibitors” value in series [1] is given as “potent irreversible inhibitors”. The “increase” value in series [2] is “significantly increase”.
For the compound `C=C=CC(N)CCC(=O)O` (stereo not shown) [4-amino-5,6-heptadienoic acid], the deaths result in the series with mouse is recorded as “no deaths”. Also, the LD50 (as a rule, the dose at which mortality reaches 50%) at 504 h in series [3] is greater than 500 mg/kg.
For the compound `C=C=C(C)C(N)CCC(=O)OCCCCCCCC` (stereo not shown) [Octyl 4-amino-5-methyl-5,6-heptanoate, octyl-4-amino-5-methyl-5,6-heptadienoate para-toluene-sulfonic acid salt], in the series on C. elegans (1 h), the activity at 100 µg/mL turned out to be 25%.
For `C#CC(N)CCC(=O)O` (stereo not shown) [γ-acetylenic], the “irreversible inhibitors” value in series [1] is on record as “potent irreversible inhibitors”. The “increase” value in series [2] is “significantly increase”.
